# Test results: publication PMC13266999, “Designing Antibiotics with Inherent Resistance to Efflux as a Strategy to Revive Discovery against Multidrug-Resistant Pathogens” (Journal of Medicinal Chemistry, 2026)
# Values joined by “and” are separate entries in the source; they are usually repeats but may differ in a detail not shown here. Equal values may be shown once. Read-outs that look alike come from different tables or passages of the source.
# Legend:
# [1] = tested on: Pseudomonas aeruginosa; assay: MIC (microbroth dilution); type: cell-based; settings: for MIC50: in the presence of PMBN, n = 7 strains
# Procedure, shortened: (§1)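 Broth microdilution MICs were run in tryptic soy broth, or for Streptococcus spp. in cation-adjusted Mueller Hinton broth with 2.5% lysed horse blood, using overnight stationary-phase cultures back-diluted. MIC was the lowest concentration with no visible growth, with OD600 also read. Some MICs included PMBN at 30 μg/mL final.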
# [2] = tested on: S. dysgalactiae; assay: MIC (microbroth dilution); type: cell-based; settings: for MIC: Streptococcus dysgalactiae
# Procedure, shortened: as §1
# [3] = target: T1, WT E. coli DNA gyrase (Escherichia coli, UniProt P0AES4+P0AES6); assay: DNA gyrase inhibition assay; type: biochemical
# T1 construct: purchased Inspiralis Ltd. (Norwich, UK)
# Experimental: Gyrase inhibition was determined through biochemical assay kits from Inspiralis Ltd. (Norwich, UK), according to manufacturer’s instructions, and as described previously. Briefly, 1U of enzyme was incubated with 0.5 μg of relaxed […] DNA in the presence of compound in 1% DMSO for 30 min at 37 °C. A control reaction contained no compound but still contained 1% DMSO. The reactions were stopped through Stop Buffer addition and the DNA separated through addition of chloroform/iso-amyl alcohol (24;1). Samples were run on a 1% agarose gel at 75 V for 2 h, which was then stained with 1 μg/mL ethidium bromide and visualized using a NuGenius gel imager (Syngene). The intensity of the supercoiled DNA band was quantified using Syngene software, and the inhibition of the supercoiling of the DNA by the compounds was calculated.
# [4] = tested on: S. aureus SA-1199 WT and SA-1199B; assay: Accumulation assay; type: cell-based; settings: SA-1199B compared to SA-1199
# Experimental: Minor adjustments were made to the protocol previously described by Geddes and Hergenrother. After centrifugation in oil to remove excess compound, the pellets were dissolved in 200 μL of ultrapure sterile water and subjected to five freeze–thaw cycles. Each cycle consisted of 1 min in a dry ice and ethanol bath, followed by vortexing and 3 min in a heat block at 65 °C. Miles Misra viable counts were used to determine the number of colony-forming units (CFUs) for each replicate. These counts were performed for the 0.55 OD inoculum, postcompound incubation, solvent-only control, and lysates.
# A 20 μL sample was injected into an Onyx monolithic C18 column and run using a gradient method. The mobile phase began with 10% acetonitrile and 90% water, with the acetonitrile content increased to 90% over 7 min, maintained for 2 min, and then returned to 10%. The area under the curve was automatically calculated using Agilent ChemStation software to determine the level of accumulation within the bacterial cells. Finally, the data were analyzed using GraphPad Prism 10.4.1. Unpaired t test was conducted to evaluate the statistical significance of the level of efflux in the efflux mutant S. aureus 1199B strain compared to the wild-type S. aureus 1199 strain.
# [5] = target: T2, COX1(h) (Homo sapiens, UniProt P23219); assay: SafetyScreen44; type: biochemical; settings: enzymatic activity, 1.0E-05 M
# T2 construct: purchased Eurofins (SafetyScreen44)
# Experimental: (§2) Off-target pharmacology was evaluated using the Eurofins SafetyScreen44 in vitro panel. […] Binding assays were performed using radioligand displacement, and enzyme or uptake assays measured inhibition of control activity using validated detection methods (scintillation counting, fluorimetry or photometry). Responses were expressed as percent inhibition of control binding or activity. Based on Eurofins interpretation guidelines, effects ≥50% were considered significant, effects between 25% and 50% weak to moderate, and effects <25% were not considered biologically relevant.
# [6] = target: T3, COX2(h) (Homo sapiens, UniProt P35354); assay: SafetyScreen44; type: biochemical; settings: enzymatic activity, 1.0E-05 M
# T3 construct: purchased Eurofins (SafetyScreen44)
# Experimental: as §2
# [7] = target: T4, Lck kinase (h) (Homo sapiens, UniProt P06239); assay: SafetyScreen44; type: biochemical; settings: enzymatic activity, 1.0E-05 M
# T4 construct: purchased Eurofins (SafetyScreen44)
# Experimental: as §2
# [8] = target: T5, PDE3A (h) (Homo sapiens, UniProt Q14432); assay: SafetyScreen44; type: biochemical; settings: enzymatic activity, 1.0E-05 M
# T5 construct: purchased Eurofins (SafetyScreen44)
# Experimental: as §2
# [9] = target: T6, PDE4D2 (h) (Homo sapiens, UniProt Q08499); assay: SafetyScreen44; type: biochemical; settings: enzymatic activity, 1.0E-05 M
# T6 construct: purchased Eurofins (SafetyScreen44)
# Experimental: as §2
# [10] = target: T7, acetylcholinesterase (h) (Homo sapiens, UniProt P22303); assay: SafetyScreen44; type: biochemical; settings: enzymatic activity, 1.0E-05 M
# T7 construct: purchased Eurofins (SafetyScreen44)
# Experimental: as §2
# [11] = in vivo; settings: male, mouse, po
# [12] = Pseudomonas aeruginosa, CFL 004 CRCN, read-out: MIC
# 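Throughout, for MTD: male ICR mice given oral doses under a stepwise escalation scheme to find the highest tolerated dose.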
# T7 sequence (P22303 32-614): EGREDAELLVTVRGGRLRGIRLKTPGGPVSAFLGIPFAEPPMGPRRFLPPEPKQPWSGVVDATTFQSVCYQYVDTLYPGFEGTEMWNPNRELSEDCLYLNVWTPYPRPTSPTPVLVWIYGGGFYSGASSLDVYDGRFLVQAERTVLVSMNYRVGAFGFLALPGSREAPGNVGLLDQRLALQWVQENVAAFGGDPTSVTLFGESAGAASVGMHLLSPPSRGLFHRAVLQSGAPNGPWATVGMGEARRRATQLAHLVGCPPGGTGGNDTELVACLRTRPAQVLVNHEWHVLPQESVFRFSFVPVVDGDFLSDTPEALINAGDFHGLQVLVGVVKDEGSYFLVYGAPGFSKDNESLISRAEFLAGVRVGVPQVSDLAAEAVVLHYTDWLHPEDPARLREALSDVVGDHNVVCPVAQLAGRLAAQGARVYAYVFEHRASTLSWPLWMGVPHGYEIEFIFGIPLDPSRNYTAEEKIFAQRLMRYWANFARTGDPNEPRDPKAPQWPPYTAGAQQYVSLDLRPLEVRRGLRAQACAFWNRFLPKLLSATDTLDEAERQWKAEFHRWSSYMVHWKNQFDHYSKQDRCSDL
# T2 sequence (P23219 24-599): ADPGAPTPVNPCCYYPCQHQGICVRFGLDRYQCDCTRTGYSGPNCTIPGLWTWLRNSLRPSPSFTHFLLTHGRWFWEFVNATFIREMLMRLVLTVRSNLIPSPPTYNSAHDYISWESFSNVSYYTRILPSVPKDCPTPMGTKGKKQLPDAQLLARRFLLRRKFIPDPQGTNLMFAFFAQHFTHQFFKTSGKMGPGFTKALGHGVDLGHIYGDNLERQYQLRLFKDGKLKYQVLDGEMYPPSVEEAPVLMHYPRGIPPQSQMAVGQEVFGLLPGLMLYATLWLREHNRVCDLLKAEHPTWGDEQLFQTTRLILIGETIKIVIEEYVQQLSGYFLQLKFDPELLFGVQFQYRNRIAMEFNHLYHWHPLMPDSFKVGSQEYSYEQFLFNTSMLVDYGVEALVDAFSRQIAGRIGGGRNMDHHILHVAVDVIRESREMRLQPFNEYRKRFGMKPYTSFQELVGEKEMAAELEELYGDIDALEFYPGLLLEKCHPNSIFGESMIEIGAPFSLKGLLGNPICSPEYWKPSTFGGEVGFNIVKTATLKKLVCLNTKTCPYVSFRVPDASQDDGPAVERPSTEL
# T3 sequence (P35354 18-604): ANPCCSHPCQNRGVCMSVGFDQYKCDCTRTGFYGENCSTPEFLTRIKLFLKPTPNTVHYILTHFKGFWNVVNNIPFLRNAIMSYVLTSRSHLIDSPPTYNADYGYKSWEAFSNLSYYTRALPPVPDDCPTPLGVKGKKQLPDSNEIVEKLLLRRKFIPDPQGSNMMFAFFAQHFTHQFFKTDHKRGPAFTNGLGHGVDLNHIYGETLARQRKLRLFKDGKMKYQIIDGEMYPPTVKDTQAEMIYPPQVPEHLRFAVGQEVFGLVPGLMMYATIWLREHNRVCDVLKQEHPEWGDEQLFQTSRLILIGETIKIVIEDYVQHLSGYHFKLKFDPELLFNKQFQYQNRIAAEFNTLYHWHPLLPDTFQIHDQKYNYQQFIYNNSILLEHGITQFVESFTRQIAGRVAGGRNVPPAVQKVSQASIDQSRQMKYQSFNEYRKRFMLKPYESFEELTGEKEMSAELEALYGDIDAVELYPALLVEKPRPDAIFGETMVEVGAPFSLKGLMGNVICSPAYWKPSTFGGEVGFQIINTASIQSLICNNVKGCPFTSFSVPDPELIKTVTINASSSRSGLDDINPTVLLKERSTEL
# T5 sequence (Q14432 whole entry): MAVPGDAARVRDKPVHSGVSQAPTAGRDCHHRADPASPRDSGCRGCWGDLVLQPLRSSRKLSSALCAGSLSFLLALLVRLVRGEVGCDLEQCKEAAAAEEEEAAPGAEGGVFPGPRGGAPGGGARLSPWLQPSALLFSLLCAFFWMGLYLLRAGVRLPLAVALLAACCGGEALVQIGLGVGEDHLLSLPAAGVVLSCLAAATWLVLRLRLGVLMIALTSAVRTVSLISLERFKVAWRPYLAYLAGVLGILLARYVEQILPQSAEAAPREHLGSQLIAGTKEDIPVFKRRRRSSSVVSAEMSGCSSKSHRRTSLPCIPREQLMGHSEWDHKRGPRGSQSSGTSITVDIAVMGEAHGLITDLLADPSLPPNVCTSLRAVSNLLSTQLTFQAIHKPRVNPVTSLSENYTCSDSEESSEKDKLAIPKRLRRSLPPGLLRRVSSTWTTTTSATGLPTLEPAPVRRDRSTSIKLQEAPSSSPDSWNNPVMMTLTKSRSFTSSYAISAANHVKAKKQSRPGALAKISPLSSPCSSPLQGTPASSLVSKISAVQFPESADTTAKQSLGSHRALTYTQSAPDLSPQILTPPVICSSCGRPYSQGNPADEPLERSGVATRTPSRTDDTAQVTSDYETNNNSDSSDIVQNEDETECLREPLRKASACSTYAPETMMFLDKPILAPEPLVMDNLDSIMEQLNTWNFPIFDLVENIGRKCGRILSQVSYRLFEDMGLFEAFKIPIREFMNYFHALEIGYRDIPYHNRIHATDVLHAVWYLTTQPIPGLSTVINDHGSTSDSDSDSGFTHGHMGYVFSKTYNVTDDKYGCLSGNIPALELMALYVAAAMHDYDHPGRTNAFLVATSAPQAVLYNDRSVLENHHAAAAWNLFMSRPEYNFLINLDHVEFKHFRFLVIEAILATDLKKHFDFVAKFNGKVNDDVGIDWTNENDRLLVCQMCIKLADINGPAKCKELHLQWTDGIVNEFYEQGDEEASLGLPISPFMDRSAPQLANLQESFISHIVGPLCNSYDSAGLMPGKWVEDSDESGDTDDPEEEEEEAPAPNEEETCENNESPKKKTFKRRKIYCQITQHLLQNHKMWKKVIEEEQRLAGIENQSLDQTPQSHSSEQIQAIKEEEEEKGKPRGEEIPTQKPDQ
# T4 sequence (P06239 whole entry): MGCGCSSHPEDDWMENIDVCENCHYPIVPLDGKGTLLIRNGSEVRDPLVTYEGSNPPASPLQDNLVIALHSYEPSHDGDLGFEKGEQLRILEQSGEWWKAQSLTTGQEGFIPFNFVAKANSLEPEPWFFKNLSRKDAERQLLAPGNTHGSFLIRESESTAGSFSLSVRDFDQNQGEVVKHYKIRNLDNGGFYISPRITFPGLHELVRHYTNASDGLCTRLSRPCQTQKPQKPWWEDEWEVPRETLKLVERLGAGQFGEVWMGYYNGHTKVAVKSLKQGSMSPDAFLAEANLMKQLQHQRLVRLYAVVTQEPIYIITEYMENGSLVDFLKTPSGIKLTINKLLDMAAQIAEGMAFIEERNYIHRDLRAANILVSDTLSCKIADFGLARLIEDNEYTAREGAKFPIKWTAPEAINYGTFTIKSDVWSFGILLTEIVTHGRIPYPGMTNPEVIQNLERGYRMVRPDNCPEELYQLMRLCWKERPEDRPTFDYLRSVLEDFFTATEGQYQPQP
# T1 sequence (P0AES4 whole entry, one chain of several): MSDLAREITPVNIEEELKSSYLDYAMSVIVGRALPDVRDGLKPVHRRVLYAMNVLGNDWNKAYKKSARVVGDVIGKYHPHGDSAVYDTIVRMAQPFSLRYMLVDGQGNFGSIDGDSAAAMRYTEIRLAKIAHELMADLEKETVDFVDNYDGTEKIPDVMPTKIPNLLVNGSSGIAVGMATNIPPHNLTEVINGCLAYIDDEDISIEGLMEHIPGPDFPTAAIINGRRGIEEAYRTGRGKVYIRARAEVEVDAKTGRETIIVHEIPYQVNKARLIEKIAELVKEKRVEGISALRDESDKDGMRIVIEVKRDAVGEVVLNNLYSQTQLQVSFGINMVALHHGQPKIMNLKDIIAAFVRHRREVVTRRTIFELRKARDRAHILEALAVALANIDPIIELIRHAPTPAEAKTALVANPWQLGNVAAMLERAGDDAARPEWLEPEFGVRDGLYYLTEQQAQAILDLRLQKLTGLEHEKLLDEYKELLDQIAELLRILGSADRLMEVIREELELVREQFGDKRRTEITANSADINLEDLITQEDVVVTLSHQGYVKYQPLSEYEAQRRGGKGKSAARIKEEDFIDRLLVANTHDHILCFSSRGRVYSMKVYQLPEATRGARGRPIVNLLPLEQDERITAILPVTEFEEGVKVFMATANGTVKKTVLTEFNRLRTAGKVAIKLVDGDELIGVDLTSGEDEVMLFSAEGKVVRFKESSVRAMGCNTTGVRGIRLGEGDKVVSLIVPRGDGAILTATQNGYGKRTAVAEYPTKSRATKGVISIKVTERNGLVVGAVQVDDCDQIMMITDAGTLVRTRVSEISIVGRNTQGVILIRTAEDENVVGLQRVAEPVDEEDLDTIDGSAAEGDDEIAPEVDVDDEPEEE
# T6 sequence (Q08499 303-809): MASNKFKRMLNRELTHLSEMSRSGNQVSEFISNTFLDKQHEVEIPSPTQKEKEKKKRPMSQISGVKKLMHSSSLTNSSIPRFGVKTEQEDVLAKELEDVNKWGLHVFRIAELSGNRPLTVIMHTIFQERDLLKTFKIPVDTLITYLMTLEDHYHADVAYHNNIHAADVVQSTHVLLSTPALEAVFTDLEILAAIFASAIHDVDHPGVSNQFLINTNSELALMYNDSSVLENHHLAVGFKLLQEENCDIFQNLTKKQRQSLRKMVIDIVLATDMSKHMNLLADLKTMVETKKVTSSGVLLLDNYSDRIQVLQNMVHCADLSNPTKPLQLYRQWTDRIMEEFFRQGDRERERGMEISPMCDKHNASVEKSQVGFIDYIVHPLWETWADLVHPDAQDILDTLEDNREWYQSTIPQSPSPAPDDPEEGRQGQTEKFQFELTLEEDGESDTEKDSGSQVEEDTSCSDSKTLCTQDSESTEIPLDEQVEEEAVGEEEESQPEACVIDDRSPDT
structure (smiles),measurement,setting,value
"C[C@H]1COc2c(N3CC[C@@H](Nc4ncccn4)C3)c(F)cc3c(=O)c(C(=O)O)cn1c23 [Compound 46, (S)-9-Fluoro-3-methyl-7-oxo-10-((R)-3-(pyrimidin-2-ylamino)pyrrolidin-1-yl)-2,3-dihydro-7H-[1,4]oxazino[2,3,4-ij]quinoline-6-carboxylic acid]",MIC,"[1]; CAS4, + PMBN",0.06 µg/mL
same,MIC,"[1]; CFL 004 CRCN, + PMBN",8 µg/mL
same,MIC,"[1]; GH12, + PMBN",0.5 µg/mL
same,MIC,"[1]; NCTC 10662, + PMBN",≤ 0.03 µg/mL
same,MIC,"[1]; NCTC 12903, + PMBN",≤ 0.03 µg/mL
same,MIC,"[1]; NCTC 13359, + PMBN",0.06 µg/mL
same,MIC,"[1]; PAO1 ΔmexB, + PMBN",≤ 0.03 µg/mL
same,MIC,"[1]; Pseudomonas aeruginosa, CAS4, read-out: MIC",8 µg/mL
same,MIC,"[1]; Pseudomonas aeruginosa, GH12, read-out: MIC",> 32 µg/mL
same,MIC,"[1]; Pseudomonas aeruginosa, GH100, read-out: MIC",1 to 4 µg/mL
same,MIC,"[1]; Pseudomonas aeruginosa, NCTC10662, NCTC 10662, read-out: MIC",8 µg/mL
same,MIC,"[1]; Pseudomonas aeruginosa, NCTC12903, NCTC 12903, read-out: MIC",8 µg/mL
same,MIC,"[1]; Pseudomonas aeruginosa, NCTC13359, NCTC 13359, read-out: MIC",4 to 32 µg/mL
same,MIC,"[1]; Pseudomonas aeruginosa, PAO1, PAO1, read-out: MIC",4 to 8 µg/mL
same,MIC,[1]; [12],> 32 µg/mL
same,MIC50,[1]; Pseudomonas aeruginosa,0.06 µg/mL
same,MIC,"[2]; 10238, read-out: MIC",0.06 to 0.25 µg/mL
same,MIC,"[2]; 13759, read-out: MIC",0.06 µg/mL
same,MIC,"[2]; 13762, read-out: MIC",0.06 µg/mL
same,MIC,[2]; 81251,0.125 µg/mL
same,MIC,[2]; 81553,0.125 µg/mL
same,MIC,[2]; 84143,0.06 to 0.125 µg/mL
same,MIC,[2]; 84557,0.03 to 0.125 µg/mL
same,MIC,[2]; 84574,0.06 to 0.125 µg/mL
same,MIC range,[2]; n = 8,0.0625 to 0.125 µg/mL
same,IC50,[3],0.682 µM
same,level of accumulation,[4],no significant change in accumulation
same,% Inhibition,[5],30.3185% and 30.3%
same,% Inhibition,[6],8.111%
same,% Inhibition,[7],-2.891%
same,% Inhibition,[8],7.502%
same,inhibition at 10 µM,[9],14.8%
same,% Inhibition,[10],32.9861% and 33.0%
same,MTD at 72 h,[11]; ICR,≥ 400 mg/kg
"Cc1cc(C)nc(N[C@@H]2CCN(c3c(F)cc4c(=O)c(C(=O)O)cn5c4c3OC[C@@H]5C)C2)n1 [Compound 50, (S)-10-((R)-3-((4,6-Dimethylpyrimidin-2-yl)amino)pyrrolidin-1-yl)-9-fluoro-3-methyl-7-oxo-2,3-dihydro-7H-[1,4]oxazino[2,3,4-ij]quinoline-6-carboxylic acid]",MIC,"[2]; 10238, read-out: MIC",≤ 0.03 µg/mL
same,MIC,"[2]; 13759, read-out: MIC",≤ 0.03 µg/mL
same,MIC,"[2]; 13762, read-out: MIC",≤ 0.03 µg/mL
same,MIC,"[2]; 81251, read-out: MIC",≤ 0.03 µg/mL
same,MIC,[2]; 81553,0.125 µg/mL
same,MIC,"[2]; 84143, read-out: MIC",0.06 µg/mL
same,MIC,"[2]; 84557, read-out: MIC",≤ 0.03 µg/mL
same,MIC,"[2]; 84574, read-out: MIC",0.06 µg/mL
same,MIC,"[2]; n = 8, read-out: modal MIC",≤ 0.03 µg/mL
same,MIC range,[2]; n = 8,≤ 0.03 to 0.125 µg/mL
same,inhibition at 10 µM,[5],15%
same,inhibition at 10 µM,[6],25.9%
same,inhibition at 10 µM,[7],2.87%
same,inhibition at 10 µM,[8],12.2%
same,inhibition at 10 µM,[9],31.8%
same,inhibition at 10 µM,[10],34.2%
same,MTD at 72 h,[11],≥ 400 mg/kg
"C[C@H]1COc2c(N3CCN(C)CC3)c(F)cc3c(=O)c(C(=O)O)cn1c23 [Levofloxacin, (S)-9-Fluoro-3-methyl-10-(4-methylpiperazin-1-yl)-7-oxo-2,3-dihydro-7H-[1,4]oxazino[2,3,4-ij]quinoline-6-carboxylic acid, reference compound]",MIC,"[1]; CAS4, + PMBN",≤ 0.125 µg/mL
same,MIC,"[1]; CFL 004 CRCN, + PMBN",16 µg/mL
same,MIC,"[1]; GH12, + PMBN",4 µg/mL
same,MIC,"[1]; NCTC 10662, + PMBN",≤ 0.125 µg/mL
same,MIC,"[1]; NCTC 12903, + PMBN",≤ 0.125 µg/mL
same,MIC,"[1]; NCTC 13359, + PMBN",0.25 µg/mL
same,MIC,"[1]; PAO1, + PMBN",0.125 µg/mL
same,MIC,"[1]; PAO1 ΔmexB, + PMBN",≤ 0.03 µg/mL
same,MIC,"[1]; Pseudomonas aeruginosa, CAS4",2 µg/mL
same,MIC,"[1]; Pseudomonas aeruginosa, GH12",64 µg/mL
same,MIC,"[1]; Pseudomonas aeruginosa, GH100",0.25 µg/mL
same,MIC,"[1]; Pseudomonas aeruginosa, NCTC10662, NCTC 10662",2 µg/mL
same,MIC,"[1]; Pseudomonas aeruginosa, NCTC12903, NCTC 12903",4 µg/mL
same,MIC,"[1]; Pseudomonas aeruginosa, NCTC13359, NCTC 13359",4 µg/mL
same,MIC,"[1]; Pseudomonas aeruginosa, PAO1",0.5 µg/mL
same,MIC,"[1]; Pseudomonas aeruginosa, PAO1, PAO1",2 µg/mL
same,MIC,[1]; [12],128 µg/mL
same,MIC50,[1]; Pseudomonas aeruginosa,0.125 µg/mL
same,IC50,"[3]; wild-type E. coli DNA gyrase, read-out: IC50 (converted)",0.526 µM
same,level of accumulation,[4],lower in the NorA-overexpressing SA-1199B strain
